Where a name gives a salt, the structure may show the parent alone.
Experiments:
[1] = target: T1, GK-GKRP (Homo sapiens, UniProt Q14397); test: biochemical; details: GK-GKRP IC50 (Binding)
T1 sequence (Q14397 1-625): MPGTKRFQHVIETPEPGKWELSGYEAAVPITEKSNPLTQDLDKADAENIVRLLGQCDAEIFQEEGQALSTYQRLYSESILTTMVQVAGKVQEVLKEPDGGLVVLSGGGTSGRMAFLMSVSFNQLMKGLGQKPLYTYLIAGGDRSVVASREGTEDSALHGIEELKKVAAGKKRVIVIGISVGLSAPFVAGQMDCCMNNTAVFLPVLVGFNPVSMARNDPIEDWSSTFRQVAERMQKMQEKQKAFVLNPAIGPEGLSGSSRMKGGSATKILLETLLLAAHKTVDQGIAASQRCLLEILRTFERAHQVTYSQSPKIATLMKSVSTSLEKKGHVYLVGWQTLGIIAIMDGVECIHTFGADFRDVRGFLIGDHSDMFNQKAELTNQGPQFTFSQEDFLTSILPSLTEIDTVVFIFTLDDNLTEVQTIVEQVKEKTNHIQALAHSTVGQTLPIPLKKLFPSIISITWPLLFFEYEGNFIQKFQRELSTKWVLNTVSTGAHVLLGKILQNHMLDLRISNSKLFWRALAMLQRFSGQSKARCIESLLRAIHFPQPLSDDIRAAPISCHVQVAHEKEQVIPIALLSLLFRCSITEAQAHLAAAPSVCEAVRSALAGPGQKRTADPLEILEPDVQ

[2] = target: T2, GKRP (Glucokinase Regulatory Protein) with human His-hepatic GK (Homo sapiens, UniProt Q14397); test: GKRP NADPH Coupled Assay; assay type: biochemical; details: indirect measure of glucose-6-phosphate, fluorescence, 1 μM GKRP (10×), 20 nM GK (5×)
T2 sequence (Q14397 1-625): T1 sequence (Q14397 1-625)
Method in brief: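 Human His-hepatic GK (5× stock 20 nM) in 50 mM Tris pH 7.5, 4 mM MgCl2, 6% DMSO, 0.1% BSA, 0.01% Brij-35, with GKRP and compound preincubated 30 min, then reaction 1 h at RT. Glucose-6-phosphate read indirectly via G6P dehydrogenase-coupled NADPH formation from β-NADP (2× stop/detection reagent, pH 9.2, 5 min).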

[3] = target: T2, GKRP (Glucokinase Regulatory Protein) with human His-hepatic GK; test: GKRP LC MS/MS Biochemical Assay; details: 13C-glucose-6-phosphate formation, 1 μM GKRP (10×), 30 nM GK (5×)
Method in brief: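 Human His-hepatic GK (working stock 30 nM, 5×) with GKRP in 50 mM Tris pH 7.5, 4 mM MgCl2, 6% DMSO, DTT, BSA and Brij-35. After a 30 min preincubation, GK was added and the reaction ran 30 min at room temperature. Stopped with acetonitrile; 13C-glucose-6-phosphate formed from 13C-glucose quantified by LC MS/MS.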

IC50 [1] [nM]	SMILES	EC50 ([2]; GK-GKRP EC50 (NADPH-coupled)) [nM]	EC50 ([3]; GK-GKRP EC50 (LC MS/MS)) [nM]	also measured
15300	CC#CC1CN(S(=O)(=O)c2ccc(N)nc2)CCN1c1ncc(C(C)(O)C(F)(F)F)cn1 (single isomer, unassigned) [Example 251 Second Eluting Peak from Set Two, 2-(2-(4-((6-amino-3-pyridinyl)sulfonyl)-2-(1-propyn-1-yl)-1-piperazinyl)-5-pyrimidinyl)-1,1,1-trifluoro-2-propanol]			
217	C[C@H]1COCC(=O)N1C[C@H]1CN(S(=O)(=O)c2cccs2)CCN1c1ccc([C@](C)(O)C(F)(F)F)cc1 [Example 272, (S)-5-methyl-4-(((S)-4-(tiophen-2-ylsulfonyl)-1-(4-((S)-1,1,1-trifluoro-2-hydroxypropan-2-yl)phenyl)piperazin-2-yl)methyl)morpholin-3-one]			
834	CC#Cc1cc(C(O)(C(F)(F)F)C(F)(F)F)ccc1N1CCN(S(=O)(=O)c2cccs2)CC1 [Example 262, 1,1,1,3,3,3-hexafluoro-2-(3-(1-propyn-1-yl)-4-(4-(2-thiophenylsulfonyl)-1-piperazinyl)phenyl)-2-propanol]			
11300	CC#CC1CN(S(=O)(=O)c2ccc(N)nc2)CCN1c1ncc(C(C)(O)C(F)(F)F)cn1 (single isomer, unassigned) [Example 251 First Eluting Peak from Set Two, 2-(2-(4-((6-amino-3-pyridinyl)sulfonyl)-2-(1-propyn-1-yl)-1-piperazinyl)-5-pyrimidinyl)-1,1,1-trifluoro-2-propanol]			
229	CC(O)(c1cnc(-c2ccc(S(=O)(=O)c3ccc(N)nc3)cc2)nc1)C(F)(F)F (racemic) [Example 265, 2-(2-(4-((6-amino-3-pyridinyl)sulfonyl)phenyl)-5-pyrimidinyl)-1,1,1-trifluoro-2-propanol]			
323	CC(O)(c1ccc(N2CCN(S(=O)(=O)c3cccs3)C[C@@H]2CNS(=O)(=O)c2ccc(F)cc2)cc1)C(F)(F)F (mixture of isomers) [Example 254, 4-fluoro-N-(((2S)-4-(2-thiophenylsulfonyl)-1-(4-(2,2,2-trifluoro-1-hydroxy-1-methylethyl)phenyl)-2-piperazinyl)methyl)benzenesulfonamide]			
36	CC#CC1CN(S(=O)(=O)c2ccc(N)nc2)CCN1c1ncc(C(C)(O)C(F)(F)F)cn1 (mixture of isomers) [Example 251, 2-(2-(4-((6-amino-3-pyridinyl)sulfonyl)-2-(1-propyn-1-yl)-1-piperazinyl)-5-pyrimidinyl)-1,1,1-trifluoro-2-propanol]			
9	CC#CC1CN(S(=O)(=O)c2ccc(N)nc2)CCN1c1ncc(C(C)(O)C(F)(F)F)cn1 (single isomer, unassigned) [Example 251 Second Eluting Peak from Set One, 2-(2-(4-((6-amino-3-pyridinyl)sulfonyl)-2-(1-propyn-1-yl)-1-piperazinyl)-5-pyrimidinyl)-1,1,1-trifluoro-2-propanol]			
112	CC#CC1CN(S(=O)(=O)c2nnc(N)s2)CCN1c1ccc(C(O)(C(F)(F)F)C(F)(F)F)cc1 (racemic) [Example 249, 2-(4-(4-((5-amino-1,3,4-thiadiazol-2-yl)sulfonyl)-2-(1-propyn-1-yl)-1-piperazinyl)phenyl)-1,1,1,3,3,3-hexafluoro-2-propanol]			
463	CC(O)(c1ccc(N2CCN(S(=O)(=O)c3cccs3)C[C@@H]2CN2CCNC(C(F)(F)F)C2)cc1)C(F)(F)F (single isomer, unassigned) [Example 270 Peak 2]			
15	CC#CC1CN(S(=O)(=O)c2ccc(N)nc2)CCN1c1ncc(C(C)(O)C(F)(F)F)cn1 (single isomer, unassigned) [Example 251 First Eluting Peak from Set One, 2-(2-(4-((6-amino-3-pyridinyl)sulfonyl)-2-(1-propyn-1-yl)-1-piperazinyl)-5-pyrimidinyl)-1,1,1-trifluoro-2-propanol]			
	CC(O)(c1ccc(N2CCN(S(=O)(=O)c3cccs3)CC2c2cc(Cl)ccc2Cl)cc1)C(F)(F)F (mixture of isomers) [Example 13, 2-(4-(2-(2,5-dichlorophenyl)-4-(2-thiophenylsulfonyl)-1-piperazinyl)phenyl)-1,1,1-trifluoro-2-propanol]	2640	1960	
	O=S(=O)(c1ccccc1)c1ccc(-c2ccc(C(O)(C(F)(F)F)C(F)(F)F)cn2)cc1 [Example 17, 1,1,1,3,3,3-hexafluoro-2-(6-(4-(phenylsulfonyl)phenyl)-3-pyridinyl)-2-propanol]	1630	1710	
	CC(O)(c1ccc(N2CCN(S(=O)(=O)c3cccs3)CC2CN2CCC(F)(F)CC2)cc1)C(F)(F)F (mixture of isomers) [Example 51, 2-(4-(2-((4,4-difluoro-1-piperidinyl)methyl)-4-(2-thiophenylsulfonyl)-1-piperazinyl)phenyl)-1,1,1-trifluoro-2-propanol]	1050	1530	
	CC(O)(c1ccc(N2CCN(S(=O)(=O)c3cccs3)CC2Cc2ccncc2)cc1)C(F)(F)F (mixture of isomers) [Example 76, 1,1,1-trifluoro-2-(4-(2-(4-pyridinylmethyl)-4-(2-thiophenylsulfonyl)-1-piperazinyl)phenyl)-2-propanol trifluoroacetate]	207	522	
	CC1(C)CN(CC2CN(S(=O)(=O)c3cccs3)CCN2c2ccc(C(C)(O)C(F)(F)F)cc2)CCO1 (mixture of isomers) [Example 47, 2-(4-(2-((2,2-dimethyl-4-morpholinyl)methyl)-4-(2-thiophenylsulfonyl)-1-piperazinyl)phenyl)-1,1,1-trifluoro-2-propanol]	182	295	
	CC(C)(O)C#Cc1cc(-c2ccc(C(C)(O)C(F)(F)F)cc2)ccc1S(=O)(=O)c1ccccc1 (racemic) [Example 20, 2-methyl-4-(4-(phenylsulfonyl)-4′-(2,2,2-trifluoro-1-hydroxy-1-methylethyl)-3-biphenylyl)-3-butyn-2-ol]	1800	2250	
	CC(O)(c1ccc(N2CCN(S(=O)(=O)c3cccs3)CC2CC#N)cc1)C(F)(F)F (mixture of isomers) [Example 55, (4-(2-thiophenylsulfonyl)-1-(4-(2,2,2-trifluoro-1-hydroxy-1-methylethyl)phenyl)-2-piperazinyl)acetonitrile]			EC50 ([2]; read-out: GK-GKRP EC50 (NADPH-coupled)): 3030 nM; EC50 ([3]; read-out: GK-GKRP EC50 (LC MS/MS)): 3940 nM
	O=S(=O)(c1ccccc1)c1ccc(-c2ccc(C(O)(C(F)(F)F)C(F)(F)F)cc2)cc1 [Example 21, 1,1,1,3,3,3-hexafluoro-2-(4′-(phenylsulfonyl)-4-biphenylyl)-2-propanol]	1660	3960	

SMILES	IC50 [1] [nM]	EC50 ([2]; GK-GKRP EC50 (NADPH-coupled)) [nM]	EC50 ([3]; GK-GKRP EC50 (LC MS/MS)) [nM]	also measured
Nc1ccc(S(=O)(=O)N2CCN(c3ncc(C(O)(C(F)(F)F)C(F)(F)F)cn3)[C@@H](CN3C4CCC3COC4)C2)cn1 [Example 271, 2-(2-((2S)-4-((6-amino-3-pyridinyl)sulfonyl)-2-(3-oxa-8-azabicyclo[3.2.1]oct-8-ylmethyl)-1-piperazinyl)-5-pyrimidinyl)-1,1,1,3,3,3-hexafluoro-2-propanol]	3			
CC(c1ccccc1)N(C[C@H]1CN(S(=O)(=O)c2cccs2)CCN1c1ccc(C(C)(O)C(F)(F)F)cc1)S(C)(=O)=O (mixture of isomers) [Example 252, N-(1-phenylethyl)-N-(((2R)-4-(2-thiophenylsulfonyl)-1-(4-(2,2,2-trifluoro-1-hydroxy-1-methylethyl)phenyl)-2-piperazinyl)methyl)methanesulfonamide]	671			

Source: patent publication US8431563B2 (priority 2010, dated 2013)
